For series [1], the target named is T1, rMnHK (recombinant M. nipponense hexokinase) (Macrobrachium nipponense, UniProt A0A220NLA7).
T1 construct: pET-28a, His tag, E. coli BL21 (DE3); about 70 kDa on SDS-PAGE
T1 sequence (A0A220NLA7 1-449): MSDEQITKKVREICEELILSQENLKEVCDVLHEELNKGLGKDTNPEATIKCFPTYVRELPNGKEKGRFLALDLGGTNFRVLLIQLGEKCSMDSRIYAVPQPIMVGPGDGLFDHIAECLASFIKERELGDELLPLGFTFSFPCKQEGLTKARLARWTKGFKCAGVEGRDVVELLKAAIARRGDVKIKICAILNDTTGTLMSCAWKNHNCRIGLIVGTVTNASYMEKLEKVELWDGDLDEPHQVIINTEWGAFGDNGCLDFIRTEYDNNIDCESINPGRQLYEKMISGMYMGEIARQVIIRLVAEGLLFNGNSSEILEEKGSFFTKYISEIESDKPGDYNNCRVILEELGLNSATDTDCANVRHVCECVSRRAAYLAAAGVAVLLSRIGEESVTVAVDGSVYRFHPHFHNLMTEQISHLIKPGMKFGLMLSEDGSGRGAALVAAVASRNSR
The experiment in a line: enzyme inhibition, Lineweaver-Burk plot. The class given is biochemical. An excerpt:
enzyme inhibition, Lineweaver-Burk plot on rMnHK (recombinant M. nipponense hexokinase)

Substrate in series [2]: Nc1ncnc2c1ncn2[C@@H]1O[C@H](COP(=O)(O)OP(=O)(O)OP(=O)(O)O)[C@@H](O)[C@H]1O
The experiment in a line: steady-state kinetics, Michaelis-Menten / Lineweaver-Burk plot. The class given is biochemical, Macrobrachium nipponense. The following applies: co-substrate hexose; assay pH and temperature not stated.

Like-named read-outs stand apart in the source and are kept apart here.

As to `O=P(O)(O)OP(=O)(O)O` [PPi], the Ki in series [1] (read-out: Inhibitor Studies (Ki) (mM) / PPi) is 0.011 mM.

`Nc1ncnc2c1ncn2[C@@H]1O[C@H](COP(=O)(O)OP(=O)(O)O)[C@@H](O)[C@H]1O` [ADP]: in series [1] (read-out: Inhibitor Studies (Ki) (mM) / ADP), the Ki turned out to be 0.76 mM.

B1: rMnHK (recombinant M. nipponense hexokinase) (Macrobrachium nipponense) (protein)
chain: T1 sequence (A0A220NLA7 1-449)
notes: pET-28a, His tag, E. coli BL21 (DE3); about 70 kDa on SDS-PAGE
Regarding B1, the Michaelis-Menten constant (Km) in series [2] is 880 ± 600 µM.

The term Km denotes the substrate concentration at which the rate is half of its maximum.

The values are drawn from PMC5486078, “Molecular Cloning and Functional Characterization of a Hexokinase from the Oriental River Prawn Macrobrachium nipponense in Response to Hypoxia” (International Journal of Molecular Sciences, 2017).
